Test results published in patent US20260224733A1, “NANOPARTICLES DIRECTED TO CXCR4 AND USE THEREOF” (TECHNION RESEARCH & DEVELOPMENT FOUNDATION LIMITED, priority 2023, published 2026).
Where two headings read alike, the source gives them in different places.

What was measured:
Type in all cases: cell-based, human
CAG cells = experiment: Apoptosis assay (7AAD and Annexin V, flow cytometry); conditions: 48 h; compared to other treatments tested
Procedure: (§1) In another experiment cells were incubated with 10% plasma obtained from vehicle-treated mice, bortezomib-treated mice (at the 24 h time-point) or ATBL-treated mice at 24, 72 and 168 h time-point post administration. Then cell viability and apoptosis status; healthy, early apoptosis, late apoptosis and dead, were determent using 7AAD and Annexin V staining and were used in accordance with the manufacturer's instruction. At least 50,000 events were acquired using a LSRFortessa flow cytometer (BD) and analyzed with FlowJo 10.
(§2) To determine the therapeutic effect of ATBL compared to free bortezomib, a cell viability and apoptosis assay was used. To this end, CAG and RPMI8226 cells were treated with ATBL, bortezomib in naked liposomes, free bortezomib, AMD on empty liposomes, free AMD, empty naked liposomes and vehicle. […] However, the inventors hypothesized that in an in vivo model, ATBL will have better therapeutic efficacy due to its targeting properties.

RPMI8226 cells [1] = experiment: as above; conditions: 48 h; compared to other treatments tested
Procedure: as §1, §2

RPMI8226 cells [2] = experiment: IC50 of bortezomib and ATBL in RPMI8226 cells; conditions: for IC50: read-out: half maximal inhibitory concentration (IC50)
Procedure: CAG, U266 and RPMI8226 human MM cells; (American Type Culture Collection; ATCC); KMS-11 (originally from the Japanese Collection of Research Bioresource); human MM cells and MPC-11 murine myeloma cell line (kindly provided by Professor Ralph Sanderson, University of Alabama, USA) and HL60 human acute myeloid leukemia (ATCC) were used. Cells were cultured in RPMI-1640 medium supplemented with 10% fetal bovine serum (FBS), supplemented with 1% L-glutamine, 1% sodium pyruvate and 1% pen-strep-neomycin. All cells were cultured at 37° C. in 5% CO2 for no more than 6 months after being thawed from the authentic stocks.
The half maximal inhibitory concentration (IC50) of bortezomib and ATBL was evaluated in RPMI8226 cells.

With CC(C)C[C@H](NC(=O)[C@H](Cc1ccccc1)NC(=O)c1cnccn1)B(O)O [bortezomib, [(1R)-3-methyl-1-[[(2S)-3-phenyl-2-(pyrazine-2-carbonylamino)propanoyl]amino]butyl]boronic acid] the late apoptosis (CAG cells) was “significant higher late apoptosis”, the late apoptosis (RPMI8226 cells [1]) was “significant higher late apoptosis” and the IC50 (RPMI8226 cells [2]; Homo sapiens, RPMI-8226, RPMI8226 cells) was 11 nM. The “IC50 of bortezomib relative to ATBL” value (RPMI8226 cells [2]; RPMI8226 cells) was about 2 fold and the IC50 (RPMI8226 cells [2]; RPMI8226 cells) was 9.13 nM.
